For the series, the system named is H9c2 (rat cardiomyocytes). The series can be described thus: RoK assay, number of host cells nuclei (drug-related cytotoxicity, H9c2 output, Cmin_Tox). To be noted: for Cmin_Tox: H9c2 host cells. Here is the method:
For this high-content intracellular imaging assay, H9c2 cells were seeded in 225 cm^2 T- FLASK in DMEM with 10% FBS for 4 h to allow attachment. T. cruzi trypomastigotes, collected at days 5 to 8 after infection from LLC-MK2 parasite infected cultures, were allowed to swim out for 4 h at 37°C from a centrifuged pellet (1,600 x g / 10 min). Trypomastigotes were then collected and counted in a CASY Cell Counter using the 60 μm capillary. […] Cells were washed once with PBS before incubation of the infected H9c2 monolayer with trypsin (Life-Technologies) to detach cells from the flask. Cells were counted in a CASY Cell Counter, using the 150 μm capillary, and their density set at 5 x 10^4 cells/mL in supplemented DMEM. Infected H9c2 were dispensed into 384-well plates at 50 μL per well using a Multidrop Combi dispenser. Control wells used to determine a 100% parasitic growth (full 6th column of each plate) were left untreated, whereas not infected cells were added in the control wells used as 0% parasite growth (or 100% parasite growth inhibition; full 18th column of each plate). The four plates corresponding to each RoK assay were predispensed for the same mother plate. […] Cultures were then fixed and stained with 50 μL per well of a PBS solution containing 4% formaldehyde and 2 μM DRAQ5 DNA dye (BioStatus, UK). Then plates were read in a PerkinElmer Opera Phenix using a 20x objective, 3 fields per well. DRAQ5 signal was detected using 640 nm excitation laser and a 690/50 nm emission detection filter. Automated image analysis was performed with a script developed on Acapella High Content Imaging and Analysis Software (PerkinElmer). Two outputs were provided for each sample well: (1) number of host cells nuclei to determine drug-related cytotoxicity (aka H9c2) and (2) number of amastigotes per cell as infection level measurement (aka AM/CELL). Each output is plotted as a time course for each compound at every concentration. This assay was adapted from Alonso-Padilla et al. and Peña et al..
• ME (Maximum Effect) is the maximum percentage of parasite burden reduction reached by any compound concentration. Compounds that decrease the initial parasite load will show a positive value of ME, whereas compounds that allow the progression of infection will render a negative ME value. […] It is calculated for the MCC50 (t50%_MCC50) and for the maximum concentration (t50%_Cmax). […] The value of this parameter is not either interpolated or extrapolated, and it refers to the first experimental time-course point at which a 50% of effect is reached or exceeded. • tlag defines the time elapsed for one particular concentration to reduce parasite burden between two consecutive points at any moment of the time course. It is calculated for the MCC50 (tlag_MCC50) and for the maximum concentration (tlag_Cmax). The value of this parameter is not either interpolated or extrapolated, and it refers to the first experimental time-course point of a positive slope in the normalised plot (i.e. %Cidal_Response). • Cmin_Tox (Minimal CytoToxic Concentration) is the lowest compound concentration that is reducing the number of host mammalian cells below 50% of initial cell density. Cytotoxic compounds may mislead a bona fide antiparasitic action. Therefore, this descriptor is used to flag this kind of compounds and warn about the genuine meaning of the rest of descriptors.

As to `Cn1cncc1CN1CCC2(CC1)COC(Cc1ccccc1)C2` (stereo not shown) [TCMDC-143502], the “Cmin_Tox” value is greater than 50 µM.

`COc1cc(C(C)C)c(S(C)(=O)=O)cc1C(=O)N1CCN(c2ccccc2Cl)CC1` [TCMDC-143097]: the “Cmin_Tox” value is recorded as greater than 50 µM. Turning to `COc1ccc(-c2nc3ncccc3o2)cc1NC(=O)c1cccs1` [TCMDC-143137], the “Cmin_Tox” value is listed as greater than 50 µM.

`O=C(CSc1ccc(F)cc1)N[C@@H](Cc1cnc[nH]1)C(=O)NCCc1ccccc1.O=C(O)C(F)(F)F` [TCMDC-143317]: the “Cmin_Tox” value was greater than 50 µM. As for `COc1ccc(S(=O)(=O)NCc2ccc(-c3ccc(CN(C)CCO)cc3)cc2)cc1.O=C(O)C(F)(F)F` [TCMDC-143549], the “Cmin_Tox” value is recorded as greater than 50 µM. Consider `Cc1sc(C)c(C(F)(F)F)c1CNCCCNc1cc(=O)c2ccccc2[nH]1.Cl` [TCMDC-140766], for which the “Cmin_Tox” value is reported as 50.0 µM. Regarding `O=C(NCCc1ccccn1)C(c1cn[nH]c1)N1CCN(c2ccc(Cl)c(Cl)c2)CC1` (stereo not shown) [TCMDC-143411], the “Cmin_Tox” value is greater than 50 µM. For the compound `CCCN1CCN(Cc2ccc(S(=O)(=O)Nc3cccc(C)c3)cc2)CC1.O=C(O)C(F)(F)F.O=C(O)C(F)(F)F` [TCMDC-143550], the “Cmin_Tox” value is listed as greater than 50 µM. Same read-out and setting: the result for `c1ccc2c(CCOc3nccnc3-c3ccncc3)c[nH]c2c1` [TCMDC-143562] reads greater than 50 µM; that for `CC(C)c1cc(C(=O)N2CCCC(c3cc4ncccc4[nH]3)C2)on1` (stereo not shown) [TCMDC-143439], greater than 50 µM. In the case of `O=C(N1CCc2ccccc2CC1)C1(C(=O)N2CCC(n3c(=O)[nH]c4ncccc43)CC2)CC1.O=C(O)C(F)(F)F` [TCMDC-143381], the “Cmin_Tox” value was greater than 50 µM.

As for `CCOc1ccc(NC(=O)C=Cc2ccc(CC)o2)cc1` [TCMDC-143160], the “Cmin_Tox” value is recorded as 50.0 µM. Same read-out and setting: to `Cc1nnnn1-c1cccc(C(=O)N2CCC[C@@]3(C)c4ncncc4CCC23)c1` (stereo partly shown) [TCMDC-143148] belongs greater than 50 µM; to `CC(C)N(C(=O)CN1C(=O)C(N)C(=O)N(c2ccccc2)c2ccccc21)c1ccccc1` (stereo not shown) [TCMDC-143071], greater than 50 µM; to `CCCc1nc2nc(N)nc(N)c2cc1CC` [TCMDC-143606], greater than 50 µM. For `O=C(Nc1ccc(Br)c(Cl)c1)Nc1ccc2c(c1)OCO2` [TCMDC-143588], the “Cmin_Tox” value is on record as greater than 50 µM. As for `CCN(Cc1ccncc1)Cc1ccc(NC(=O)c2cc(-c3ccc(F)cc3)n[nH]2)cc1` [TCMDC-143433], the “Cmin_Tox” value is recorded as greater than 50 µM. For `N#Cc1ccc(S(=O)(=O)N2CCC3(CCN(c4ccccc4)C3=O)CC2)cc1` [TCMDC-143371], the “Cmin_Tox” value is on record as greater than 50 µM. On to `O=C(NC1C(=O)N(c2ccccc2)C1c1cccnc1)c1ccc(Cl)s1` (stereo not shown) [TCMDC-143324], for which the “Cmin_Tox” value is reported as greater than 50 µM. Still for that read-out and setting: the result for `Cc1nc2nc(C)c(Cc3ccc(C(C)C)cc3)c(=O)n2[nH]1` [TCMDC-143087] reads greater than 50 µM; that for `O=C(O)/C=C\C(=O)O.O=C(c1ccc(OCCCc2cnc[nH]2)cc1)C1CC1` [TCMDC-143632], greater than 50 µM. In the case of `Fc1ccc(OC2CC(NCc3cccc4cn[nH]c34)C2)cc1C(F)(F)F` (stereo not shown) [TCMDC-143455], the “Cmin_Tox” value was 16.7 µM.

In the case of `NC(=O)c1ccccc1Nc1nc(NC2CCCCC2)nc2[nH]ccc12` [TCMDC-143314], the “Cmin_Tox” value was determined as 1.9 µM. The same measure, in the same setting: to `COc1ccc(NS(=O)(=O)c2cccc(NC(=O)c3cc(F)cc(F)c3)c2)cc1` [TCMDC-143108] belongs greater than 50 µM. In the case of `c1ccc(CCNCc2cncc3nc(-c4cnccn4)n(C4CCCCC4)c23)cc1` [TCMDC-143346], the “Cmin_Tox” value is greater than 50 µM. Still for that read-out and setting: to `COc1cc(-c2nc(N3CCOCC3)sc2-c2ccnc(NC3CCOCC3)n2)ccc1Cl.O=C(O)C(F)(F)F` [TCMDC-143414] belongs greater than 50 µM. For `OCCCNc1nc(Nc2ccncc2)nc2ccccc12` [TCMDC-143476], the “Cmin_Tox” value was greater than 50 µM. Same read-out and setting: to `CNc1c(C(N)=O)c(-c2ccc3scnc3c2)nn1CC(F)(F)F.O=C(O)C(F)(F)F` [TCMDC-143463] belongs greater than 50 µM; to `O[C@H]1CC[C@H](Nc2nccc(-c3sc(C4CCOCC4)nc3-c3ccc(F)c(F)c3)n2)CC1` [TCMDC-143387], 16.7 µM; to `COc1ccc(CN(C)Cc2ccncc2)cc1-c1ccc(S(=O)(=O)NC2CCC2)s1.O=C(O)C(F)(F)F.O=C(O)C(F)(F)F` [TCMDC-143084], greater than 50 µM.

As to `CCCCNc1nccc(-c2c(-c3ccc(F)cc3)nn3c(N4CCOCC4)cccc23)n1` [TCMDC-143617], the “Cmin_Tox” value is given as greater than 50 µM. The same measure, in the same setting: the result for `Cc1nccn1C1CCCN(C(=O)c2cc3c(F)cccc3s2)C1` (stereo not shown) [TCMDC-143498] reads greater than 50 µM; that for `O=C(C1CCCCC1)N1CCN(c2nnc(-c3ccccc3)c3ccccc23)CC1` [TCMDC-143511], greater than 50 µM. Same read-out and setting: to `CC1CS(=O)(=O)CCN1/N=C/c1ccc([N+](=O)[O-])o1` (stereo not shown) [Nifurtimox, nifurtimox, reference compound] belongs greater than 50 µM; to `CC(C)Oc1cccc(N2CCC(C(=O)N3CCCN(C(C)C)CC3)CC2)c1.Cl` [TCMDC-143432], greater than 50 µM. `COc1cccc(CCNC(=O)C(c2cn[nH]c2)N2CCN(c3ccc(Cl)cc3)CC2)c1` (stereo not shown) [TCMDC-143434]: the “cytotoxicity versus host cells (in words)” value was “hints of cytotoxicity even at low concentrations” and the “Cmin_Tox” value is recorded as greater than 50 µM.

For the compound `COc1ccc(NS(=O)(=O)c2cc(NC(=O)c3ccc([N+](=O)[O-])s3)ccc2OC)cc1` [TCMDC-143163], the “Cmin_Tox” value was greater than 50 µM. Consider `Cc1ccc(C)c(OC2CCN(C(=O)C(C)n3ccnc3)CC2)c1` (stereo not shown) [TCMDC-143481], for which the “Cmin_Tox” value is greater than 50 µM. For `CN(C)Cc1ccc(-c2ccc(S(=O)(=O)NCC3CCCO3)c(F)c2)cc1.O=C(O)C(F)(F)F` (stereo not shown) [TCMDC-143085], the “Cmin_Tox” value is reported as greater than 50 µM.

As to `CC(=O)Nc1ccc(-c2noc(CC3CCCN(Cc4cccc(F)c4C)C3)n2)cc1` (stereo not shown) [TCMDC-143362], the “Cmin_Tox” value came out at 50.0 µM. Still for that read-out and setting: the result for `COc1ccc(C2CC(c3ccccc3Cl)=NN2C(=O)CNC(=O)C2CCC2)cc1` (stereo not shown) [TCMDC-143130] reads greater than 50 µM; that for `CC(CNS(=O)(=O)c1ccc(OC(F)F)cc1)c1ccc(NC(=O)c2ccncc2)cc1` (stereo not shown) [TCMDC-143535], greater than 50 µM. In the case of `Cc1cc(N(C)C)nc(Nc2ccccc2C)n1` [TCMDC-143109], the “Cmin_Tox” value is recorded as greater than 50 µM. In the case of `Cc1nn(C)c(Cl)c1CN(Cc1cccnc1)Cc1ccsc1` [TCMDC-143477], the “Cmin_Tox” value was greater than 50 µM. Turning to `Clc1ccc(Sc2cnccc2N2CCOCC2)cc1` [TCMDC-143602], the “Cmin_Tox” value is given as greater than 50 µM. The same measure, in the same setting: the result for `O=C(c1cccc(Cl)c1Cl)N1CCn2c1nc(-c1ccncc1)cc2=O` [TCMDC-143409] reads greater than 50 µM; that for `CS(=O)(=O)c1cccc(-c2cnc(N)c3c(-c4ccc(CO)cc4)csc23)c1.O=C(O)C(F)(F)F` [TCMDC-143410], greater than 50 µM; that for `O=c1[nH]ccc2ccc(-c3ccncc3)cc12` [TCMDC-143631], greater than 50 µM.

Regarding `CCCCn1nnnc1CSc1nc(C)cc(C)c1C#N` [TCMDC-143315], the “Cmin_Tox” value is recorded as greater than 50 µM.

For the compound `CC(=Cc1ccccc1)CN1CCC(=O)N(Cc2cccnc2)CC1` [TCMDC-143421], the “Cmin_Tox” value is listed as greater than 50 µM. On the same count and under the same terms, the result for `COc1ccc2ncc(=O)n(CCN3CCOC(CNCc4ccc(C(F)(F)F)cc4F)C3)c2n1` (stereo not shown) [TCMDC-143384] reads greater than 50 µM. In the case of `CN1CCCN(C(=O)c2ccc(N3CCCC3)cc2Cl)CC1` [TCMDC-143127], the “Cmin_Tox” value is given as greater than 50 µM. On the same count and under the same terms, the result for `CNc1cc(C)nc(C2CN(C(=O)c3n[nH]c4ccccc34)CCO2)c1` (stereo not shown) [TCMDC-143494] reads greater than 50 µM; that for `CC(C)Nc1nccc(-c2c(-c3ccc(F)cc3)ncn2C2CCOCC2)n1` [TCMDC-143379], greater than 50 µM; that for `CS(=O)(=O)c1cccc(CNC(=O)c2cncc(N3CCN(c4ccc(F)cc4)CC3)c2)c1.O=C(O)C(F)(F)F.O=C(O)C(F)(F)F.O=C(O)C(F)(F)F` [TCMDC-143385], greater than 50 µM.

Regarding `CN(C(=O)Nc1ccc2c(c1)CCN(C1CCC1)CC2)c1ccc(C#N)cc1.Cl` [TCMDC-143526], the “Cmin_Tox” value was greater than 50 µM. Still for that read-out and setting: to `Cc1[nH]c2ccccc2c(=O)c1Cc1c(C)[nH]c2ccccc2c1=O` [TCMDC-143490] belongs greater than 50 µM.

Source of the values: article PMC8318231, “Rate-of-Kill (RoK) assays to triage large compound sets for Chagas disease drug discovery: Application to GSK Chagas Box” (PLoS Neglected Tropical Diseases, 2021).
